13 compounds from ChEMBL document CHEMBL4673297, “Glutathione peroxidase-like functions of 1,2-diselenane-4,5-diol and its amphiphilic derivatives: Switchable catalytic cycles depending on peroxide substrates” (Bioorg Med Chem, 2021) can be followed below.

The term IC50 denotes the concentration needed to halve the response being measured.

The nature of series [1]: Glutathione peroxidase-like catalytic anti-lipid peroxidation activity assessed as inhibition of AAPH-induced lipid peroxidation incubated for 3 hrs using soybean lecithin/cholesterol-liposomes by TBARS assay. The class given is physicochemical.
Series [2] in a line: Glutathione peroxidase-like catalytic anti-lipid peroxidation activity assessed as inhibition of AAPH-induced lipid peroxidation incubated for 3 hrs in presence of (+/-)-trans-5-Hydroxy-1,2-diselenan-4-yl dodecanoate using soybean lecithin/cholesterol-liposomes by TBARS assay. The class given is physicochemical.
The nature of series [3]: Solubility of the compound in phosphate buffer solution at pH 7.5 in presence of reduced DTT. The format is physicochemical.
Series [4] concerns HeLa. Nature of the series: Protection against H2O2-induced oxidative stress in human HeLa cells assessed as cell viability at 20 uM preincubated with compound for 15 hrs followed by drug wash-out and later incubated with H2O2 for 4 hrs by MTT assay. The class given is functional, cell-based. On the technique in general: Tetrazolium assays rely on reduction of a dye to a coloured formazan, in cell work by metabolically active cells.

The nature of series [5]: Glutathione peroxidase-like catalytic antioxidant activity in pH 7 phosphate buffer assessed as catalytic reduction of H2O2 by measuring initial velocity at 100 uM and 25 degreeC using GSH as mono-thiol co-substrate in presence of NADPH by UV absorbance analysis (reference value: 11 +/- 0.4 microM/min). The format is functional.
The test system of series [6] is HeLa. Nature of the series: Cytotoxicity against human HeLa cells assessed as reduction in cell viability at 100 uM measured after 15 hrs hrs by MTT assay. The class given is cell-based.
Series [7] is described as follows: Glutathione peroxidase-like catalytic antioxidant activity in pH 7 phosphate buffer assessed as catalytic reduction of H2O2 by measuring initial velocity at 0.2 mM and 25 degreeC using reduced DTT as di-thiol co-substrate in presence of NADPH by UV absorbance analysis (reference value: 72+/- 3 microM/min). The class given is functional.
The test system of series [8] is HeLa. In words: (§1) Cytotoxicity against human HeLa cells assessed as cell viability at 20 uM measured after 15 hrs by MTT assay relative to control. The class given is cell-based. To be noted: hela, 15 h, 20 µM.
Series [9] can be described thus: Glutathione peroxidase-like catalytic antioxidant activity in pH 7 phosphate buffer assessed as catalytic reduction of H2O2 by measuring lipoic acid formation using DHLA as co-substrate at 0.2 mM in presence of NADPH by UV absorbance analysis. The class given is functional.
Series [10] relates to HeLa. Nature of the series: Protection against AAPH-induced oxidative stress in human HeLa cells assessed as increase in cell viability at 5 to 20 uM preincubated for 15 hrs followed by incubation with AAPH for 3 hrs by MTT assay relative to control. Conditions: dose 5-20 µM; time 18 hrs. The class given is functional.
Series [11] can be described thus: Glutathione peroxidase-like catalytic activity assessed as drug oxidation by measuring (S)-[1,2,7]Oxadiselenepan-4-yl-ammonium formation incubated with 8.6 mM H2O2 in water at 3.8 mM incubated for 3 hrs by ESI(+)-MS spectral analysis. The class given is functional.
A short description of series [12]: Glutathione peroxidase-like catalytic activity assessed as drug oxidation by measuring (S)-[1,2,7]Oxadiselenepan-4-yl-ammonium formation incubated with 3.8 mM H2O2 in water at 3.8 mM incubated for 30 mins by ESI(+)-MS spectral analysis. The format is functional.
Series [13] is described as follows: Glutathione peroxidase-like catalytic activity assessed as drug oxidation by measuring (S)-2-Oxo-2lambda(4)-[1,2]diselenan-4-yl-ammonium formation incubated with 8.6 mM H2O2 and 8.6 mM reduced DTT in water at 3.8 mM incubated for 2 mins by ESI(+)-MS spectral analysis. The class given is functional.
The nature of series [14]: Glutathione peroxidase-like catalytic activity assessed as drug oxidation by measuring (S)-2-Oxo-2lambda(4)-[1,2,7]oxadiselenepan-4-yl-ammonium formation incubated with 8.6 mM H2O2 and 8.6 mM reduced DTT in water at 3.8 mM incubated for 2 mins by ESI(+)-MS spectral analysis. The class given is functional.
Series [15] can be described thus: Glutathione peroxidase-like catalytic activity assessed as drug oxidation by measuring (2S)-1,4-diseleninobutan-2-aminium formation incubated with 8.6 mM H2O2 in water at 3.8 mM incubated for 3 hrs by ESI(+)-MS spectral analysis. The class given is functional.
Series [16] is described as follows: Glutathione peroxidase-like catalytic activity assessed as drug oxidation by measuring (S)-2,7-Dioxo-2lambda(4),7lambda(4)-[1,2,7]oxadiselenepan-4-yl-ammonium formation incubated with 8.6 mM H2O2 and 8.6 mM reduced DTT in water at 3.8 mM incubated for 2 mins by ESI(+)-MS spectral analysis. The format is functional.
A short description of series [17]: Glutathione peroxidase-like catalytic activity assessed as drug oxidation by measuring (S)-2-Oxo-2lambda(4)-[1,2]diselenan-4-yl-ammonium formation incubated with 8.6 mM H2O2 in water at 3.8 mM incubated for 3 hrs by ESI(+)-MS spectral analysis. The format is functional.
Series [18] can be described thus: Glutathione peroxidase-like catalytic activity assessed as drug oxidation by measuring (S)-2-Oxo-2lambda(4)-[1,2,7]oxadiselenepan-4-yl-ammonium formation incubated with 8.6 mM H2O2 in water at 3.8 mM incubated for 3 hrs by ESI(+)-MS spectral analysis. The class given is functional.
Series [19] in a line: Glutathione peroxidase-like catalytic activity assessed as drug oxidation by measuring (S)-2,7-Dioxo-2lambda(4),7lambda(4)-[1,2,7]oxadiselenepan-4-yl-ammonium formation incubated with 8.6 mM H2O2 in water at 3.8 mM incubated for 3 hrs by ESI(+)-MS spectral analysis. The format is functional.
A short description of series [20]: Glutathione peroxidase-like catalytic activity assessed as drug oxidation by measuring (S)-[1,2,7]Oxadiselenepan-4-yl-ammonium formation incubated with 8.6 mM H2O2 and 8.6 mM reduced DTT in water at 3.8 mM incubated for 2 mins by ESI(+)-MS spectral analysis. The class given is functional.
A short description of series [21]: Glutathione peroxidase-like catalytic activity assessed as drug oxidation by measuring (S)-2-Oxo-2lambda(4)-[1,2]diselenan-4-yl-ammonium formation incubated with 3.8 mM H2O2 in water at 3.8 mM incubated for 30 mins by ESI(+)-MS spectral analysis. The class given is functional.
The nature of series [22]: Glutathione peroxidase-like catalytic activity assessed as drug oxidation by measuring (S)-2,7-Dioxo-2lambda(4),7lambda(4)-[1,2,7]oxadiselenepan-4-yl-ammonium formation incubated with 3.8 mM H2O2 in water at 3.8 mM incubated for 30 mins by ESI(+)-MS spectral analysis. The class given is functional.
Series [23] can be described thus: Glutathione peroxidase-like catalytic activity assessed as drug oxidation by measuring (S)-2-Oxo-2lambda(4)-[1,2,7]oxadiselenepan-4-yl-ammonium formation incubated with 3.8 mM H2O2 in water at 3.8 mM incubated for 30 mins by ESI(+)-MS spectral analysis. The class given is functional.
The nature of series [24]: Glutathione peroxidase-like catalytic activity assessed as drug oxidation by measuring (2S)-1,4-diseleninobutan-2-aminium formation incubated with 8.6 mM H2O2 and 8.6 mM reduced DTT in water at 3.8 mM incubated for 2 mins by ESI(+)-MS spectral analysis. The format is functional.
Series [25] in a line: as §1. The class given is cell-based. Conditions: HeLa cells, read-out: Activity.
A short description of series [26]: Glutathione peroxidase-like catalytic antioxidant activity assessed as CST-HCl thiol co-substrate oxidation by measuring disulfide formation at 11.5 umol in presence of CHP lipophilic peroxide in water/CH2Cl2 solution incubated for 24 hrs by 1H-NMR spectroscopy. To be noted: dose 11.5 µmol. The class given is functional.
Series [27] can be described thus: Glutathione peroxidase-like catalytic antioxidant activity assessed as CST-HCl thiol co-substrate oxidation by measuring disulfide formation at 11.5 umol in presence of CHP lipophilic peroxide in 10 mM aqueous HCl/CH2Cl2 solution incubated for 24 hrs by 1H-NMR spectroscopy. The format is functional. Conditions: dose 11.5 µmol.
Series [28] can be described thus: Antioxidant activity assessed as radical scavenging activity by measuring DPBQ generation using DPPD and AMVN as radical initiator at 0.5 mM preincubated for 5 mins with DPPD followed by AMVN addition and measured for 30 mins by UV/Vis-spectrophotometry analysis. The format is functional. To be noted: time 35.0 min.

The source made the active and inactive calls. No cut-off for these calls is given here.

As to `CC1=NN(c2ccccc2)C(=O)C1` [EDARAVONE], the IC50 in [1] amounted to 29.3 µM; in [2], 18.7 µM.
Turning to `CCC(=O)O[C@@H]1C[Se][Se]C[C@H]1O` (racemic), in series [3], the solubility entry was “Soluble”. Moreover, the result in [4] was inactive. Also, the V0 in series [5] is 23 µM/min; in series [7] it was 330 µM/min. Besides, in series [1], the IC50 came out at 121 µM. The Activity result in series [6] and in series [8] was “Toxic” throughout. Also, the outcome in series [9] was Active.
`CCCCCC(=O)O[C@@H]1C[Se][Se]C[C@H]1O` (racemic): the solubility result in series [3] was “Soluble”. In series [4], the outcome was inactive. In addition, the V0 came to 14.9 µM/min in series [5] and 149 µM/min in series [7]. Besides, the half-maximal inhibitory concentration (IC50) in series [1] was 42.2 µM. The Activity entry in series [6] and in [8] was “Toxic” each time. In [9], the result was Active.
For the compound `CCCCCCCCCCCC(=O)O[C@@H]1C[Se][Se]C[C@H]1O` (racemic), the solubility entry in series [3] is on record as “Soluble”. Also, in series [4], the result was inactive. For the same compound, the results for the V0 in series [5] and in series [7] were 9.3 µM/min and 122 µM/min, respectively. Moreover, the IC50 in [1] turned out to be 10.7 µM. Moreover, the “fold change (FC)” value in series [10] stood at 1.5. Besides, the Activity result in series [6] and in series [8] was “Non-Toxic” each time.
For `O=C(O[C@@H]1C[Se][Se]C[C@H]1O)c1ccc2ccccc2c1` (racemic), the solubility result in [3] is “Insoluble”. In addition, in series [4], the result was inactive. In series [5], the V0 is 11.3 µM/min. Besides, the half-inhibitory concentration (IC50) in [1] stood at 15.5 µM. Also, the “fold change (FC)” value in series [10] worked out at 1.5. For the same compound, the Activity entry in series [6] is recorded as “Toxic”; in series [8], “Non-Toxic”.
Turning to `O=C(O[C@@H]1C[Se][Se]C[C@H]1O)c1ccccc1` (racemic), the solubility result in series [3] was “Soluble”. For the same compound, the result in [4] was inactive. Besides, the values for the V0 in [5] and in series [7] were 12.7 µM/min and 116 µM/min, respectively. The IC50 in series [1] was 27.3 µM. Besides, the Activity result in [6] and in [8] was “Toxic” throughout.
For `CCCCCCCC(=O)O[C@@H]1C[Se][Se]C[C@H]1O` (racemic), the solubility result in series [3] is reported as “Soluble”. For the same compound, the outcome in series [4] was inactive. Further, the V0 in [5] came out at 11.9 µM/min; in [7], 109 µM/min. In addition, the IC50 in series [1] turned out to be 30 µM. Moreover, the “fold change (FC)” value in series [10] came out at 1.5. For the same compound, the Activity result in [6] and in series [8] was “Non-Toxic” throughout.
With `N[C@H]1CC[Se][Se]C1`, the Drug metabolism result in series [11] is “Metabolite detected”; in [12] it was “Metabolite detected”; in [13] it was “Metabolite detected”; in series [14], “Metabolite not detected”; in series [15], “Metabolite detected”; in [16], “Metabolite not detected”. The Drug metabolism entry in series [17], in series [18], in series [19], in series [20], in series [21] and in series [22] was “Metabolite detected” throughout. Also, the results for the Drug metabolism entry in series [23] and in series [24] were “Metabolite detected” and “Metabolite not detected”, respectively.
For the compound `O[C@@H]1C[Se]C[C@H]1O`, the IC50 entry in series [5] and in series [7] was “Not Active” in each case.
Consider `CCCCCCCCCC(=O)O[C@@H]1C[Se][Se]C[C@H]1O` (racemic), for which the solubility result in series [3] is listed as “Soluble”. Moreover, the outcome in series [4] was inactive. The V0 in series [5] is 10.9 µM/min; in series [7], 172 µM/min. In addition, the IC50 in [1] was found to be 13.2 µM. Moreover, the “fold change (FC)” value in series [10] worked out at 1.5. For the same compound, the Activity entry in series [6] and in series [8] was “Non-Toxic” each time.
As to `O=c1c2ccccc2[se]n1-c1ccccc1` [EBSELEN], the values for the V0 in [5] and in series [7] were 32.6 µM/min and 202 µM/min, respectively. For the same compound, the IC50 in series [1] is 80.4 µM. For the same compound, the viability at 15 h, 20 µM in series [25] was determined as 80%.
For `c1ccc([Se][Se]c2ccccc2)cc1`, in series [1], the IC50 worked out at 70.1 µM.
Take `CCCCCCCCCCCCCC(=O)O[C@@H]1C[Se][Se]C[C@H]1O` (racemic): in [3], the solubility entry is on record as “Soluble”. Besides, the outcome in series [4] and in series [28] was inactive. Also, the result in series [26] and in series [27] was Active. In addition, the V0 in series [5] was 9.1 µM/min; in series [7], 63 µM/min. For the same compound, the IC50 in [1] is 16.7 µM. Besides, the “fold change (FC)” value in series [10] is 1.5. Also, the Activity entry in series [6] and in [8] was “Non-Toxic” in each case.
